According to US12643886B2 (Ontario Institute for Cancer Research (OICR), priority 2021, dated 2026):

Assays:
[1] = tested on: MDA-MB-231 cells; test: Tumor cell growth inhibition assay (ATPlite, 5 days); type: cell-based; settings: Homo sapiens, 120 h; breast tumor cell line MDA-MB-231, 5 days
Method: MDA-MB-231 cells were seeded into a 384-well plate at 1,000 cells/well in 50 μl medium (Alpha-MEM containing 10% FBS, […] Normocin, Invivogen and […] Gentamycin, Invitrogen). Plates were then incubated overnight for the cells to attach. An HP D300 digital dispenser was used to dose cells with DMSO or test compounds across a 16-point range of concentrations (high dose of 10 uM to low dose of 5 nM). Plates were incubated in a humidified 5% CO2 incubator at 37° C. After 5 days, plates were removed from the incubator and equilibrated to room temperature. An equal volume of ATPlite assay reagent was then added to each well, and samples processed according to manufacturer's instructions (Perkin Elmer). Luminescent signals were then measured using an Envision plate reader equipped with a US-Luminescence detector.

[2] = target: T1, Aurora A (Homo sapiens, UniProt O14965); test: Counter-screen against Aurora A; type: biochemical; settings: read-out: AUR-A (IC50)
T1 sequence (O14965 1-403): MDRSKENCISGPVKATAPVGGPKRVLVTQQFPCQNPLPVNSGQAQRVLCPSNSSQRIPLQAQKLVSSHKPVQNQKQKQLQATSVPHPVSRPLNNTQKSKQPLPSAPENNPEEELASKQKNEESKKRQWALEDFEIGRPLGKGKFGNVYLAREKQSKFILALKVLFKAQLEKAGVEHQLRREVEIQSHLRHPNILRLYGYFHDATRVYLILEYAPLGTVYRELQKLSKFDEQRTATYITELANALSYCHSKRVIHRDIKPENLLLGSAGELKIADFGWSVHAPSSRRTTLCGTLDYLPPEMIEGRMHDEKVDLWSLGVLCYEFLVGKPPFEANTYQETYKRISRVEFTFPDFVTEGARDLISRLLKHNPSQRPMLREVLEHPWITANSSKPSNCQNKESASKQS
Method in brief: (§1)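 Full-length recombinant NUAK2 incubated 40 min at room temperature in 8 mM MOPS pH 7.0, 0.2 mM EDTA, 10 mM magnesium acetate, 300 μM peptide substrate and 33P-ATP. Stopped with 0.5% phosphoric acid; filter-bound label counted by scintillation. IC50 reported as ranges; NUAK1 and Aurora A served as counter-screens.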

[3] = target: T2, NUAK1 (Homo sapiens, UniProt O60285); test: Counter-screen against NUAK1; type: biochemical
T2 sequence (O60285 1-661): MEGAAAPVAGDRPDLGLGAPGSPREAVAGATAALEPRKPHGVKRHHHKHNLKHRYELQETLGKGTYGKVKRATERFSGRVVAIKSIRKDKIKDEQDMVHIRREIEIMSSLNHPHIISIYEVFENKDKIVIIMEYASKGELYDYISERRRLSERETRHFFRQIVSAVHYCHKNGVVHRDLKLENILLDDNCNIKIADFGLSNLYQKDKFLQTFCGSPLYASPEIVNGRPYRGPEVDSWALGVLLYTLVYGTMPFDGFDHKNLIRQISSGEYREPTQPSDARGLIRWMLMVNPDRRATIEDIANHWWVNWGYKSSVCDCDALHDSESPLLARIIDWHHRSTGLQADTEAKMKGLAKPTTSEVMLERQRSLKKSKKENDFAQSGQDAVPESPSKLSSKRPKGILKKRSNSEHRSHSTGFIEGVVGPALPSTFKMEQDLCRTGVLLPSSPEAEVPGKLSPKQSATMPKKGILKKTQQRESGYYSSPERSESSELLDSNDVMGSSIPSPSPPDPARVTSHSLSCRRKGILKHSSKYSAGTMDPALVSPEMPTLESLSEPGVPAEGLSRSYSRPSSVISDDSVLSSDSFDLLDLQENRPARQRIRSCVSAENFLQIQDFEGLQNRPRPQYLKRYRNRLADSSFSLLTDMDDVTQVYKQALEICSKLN
Method in brief: as §1

[4] = target: T3, NUAK2 (h) (Homo sapiens, UniProt Q9H093); test: NUAK2 enzymatic assay (radiometric, Eurofins); type: biochemical; settings: full-length recombinant enzyme
T3 construct: This assay was done radiometrically using full-length, recombinant enzyme; purchased Eurofins
T3 sequence (Q9H093 1-628): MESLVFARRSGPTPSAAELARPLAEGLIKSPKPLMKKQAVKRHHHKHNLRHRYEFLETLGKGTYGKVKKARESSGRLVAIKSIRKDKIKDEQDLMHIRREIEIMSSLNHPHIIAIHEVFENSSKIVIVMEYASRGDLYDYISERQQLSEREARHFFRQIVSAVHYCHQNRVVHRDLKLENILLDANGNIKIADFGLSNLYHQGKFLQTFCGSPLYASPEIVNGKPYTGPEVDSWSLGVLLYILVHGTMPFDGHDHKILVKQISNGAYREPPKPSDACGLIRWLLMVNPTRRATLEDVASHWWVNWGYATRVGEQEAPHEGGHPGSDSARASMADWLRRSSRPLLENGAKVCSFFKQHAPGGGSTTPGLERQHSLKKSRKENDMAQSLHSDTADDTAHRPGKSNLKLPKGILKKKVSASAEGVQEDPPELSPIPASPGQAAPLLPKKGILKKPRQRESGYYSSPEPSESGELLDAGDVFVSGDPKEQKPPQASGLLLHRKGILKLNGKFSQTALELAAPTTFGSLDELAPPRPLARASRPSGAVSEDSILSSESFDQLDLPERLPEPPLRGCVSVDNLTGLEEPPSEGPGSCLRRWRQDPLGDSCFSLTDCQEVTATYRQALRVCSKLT
Method in brief: as §1

[5] = tested on: several cancer cell lines; settings: immunofluorescence; cited from earlier work
[6] = tested on: several cancer cell lines; settings: PCR; cited from earlier work

Row | Compound | IC50 [1] [nM] | IC50 [2] [nM] | IC50 [3] [nM] | IC50 [4] [nM] | YAP/TAZ nuclear localization [5] | YAP/TAZ transcriptional function (target gene expression) [6]
1 | COc1cc2c(cc1Nc1ncc(C(F)(F)F)c(Nc3cccc4c3C(=O)NC4)n1)CCNC2 [Compound I-27] | 36 | > 1000 | 11 to 100 | 11 to 100 |  | 
2 | CCN1CCN(C2CCN(c3ccc(Nc4ncc(C(F)(F)F)c(Nc5cccc6c5C(=O)NC6)n4)c(OC(F)F)c3)CC2)CC1 [Compound I-33, 7-((2-((2-(difluoromethoxy)-4-(4-(4-ethylpiperazin-1-yl)piperidin-1-yl)phenyl)amino)-5-(trifluoromethyl)pyrimidin-4-yl)amino)isoindolin-1-one] | 38 | 101 to 1000 | 11 to 100 | 11 to 100 |  | 
3 | O=C1NCc2cccc(Nc3nc(Nc4ccc(N5C[C@@H]6C[C@H]5CN6)cc4OC(F)F)ncc3C(F)(F)F)c21 [Compound I-54, 7-((2-((4-((1S,4S)-2,5-diazabicyclo[2.2.1]heptan-2-yl)-2-(difluoromethoxy)phenyl)amino)-5-(trifluoromethyl)pyrimidin-4-yl)amino)isoindolin-1-one] | 48 | > 1000 | 11 to 100 | 0.1 to 10 |  | 
4 | O=C1NCc2cccc(Nc3nc(Nc4ccc(N5C[C@H]6CNC[C@H]6C5)cc4OC(F)F)ncc3C(F)(F)F)c21 [Compound I-56, 7-((2-((2-(difluoromethoxy)-4-((3aR,6aS)-hexahydropyrrolo[3,4-c]pyrrol-2(1H)-yl)phenyl)amino)-5-(trifluoromethyl)pyrimidin-4-yl)amino)isoindolin-1-one] | 43 | 101 to 1000 | 11 to 100 | 11 to 100 |  | 
5 | O=C1NCc2cccc(Nc3nc(Nc4ccc(N5C[C@H]6CC[C@@H](C5)N6)cc4OC(F)F)ncc3C(F)(F)F)c21 [Compound I-59, 7-((2-((4-((1R,5S)-3,8-diazabicyclo[3.2.1]octan-3-yl)-2-(difluoromethoxy)phenyl)amino)-5-(trifluoromethyl)pyrimidin-4-yl)amino)isoindolin-1-one] | 54 | 101 to 1000 | 11 to 100 | 0.1 to 10 |  | 
6 | COc1cc(CN(C)C)ccc1Nc1ncc(Cl)c(Nc2cccc3c2C(=O)NC3)n1 [Compound I-63, 7-((5-chloro-2-((4-((dimethylamino)methyl)-2-methoxyphenyl)amino)pyrimidin-4-yl)amino)isoindolin-1-one] | 398 | 101 to 1000 | 11 to 100 | 0.1 to 10 |  | 
7 | O=C1NCc2cccc(Nc3nc(Nc4ccc(N5CCC6(CCNCC6)CC5)cc4OC(F)F)ncc3Cl)c21 [Compound I-77, 7-((5-chloro-2-((2-(difluoromethoxy)-4-(3,9-diazaspiro[5.5]undecan-3-yl)phenyl)amino)pyrimidin-4-yl)amino)isoindolin-1-one] |  | 101 to 1000 | 11 to 100 | 11 to 100 |  | 
8 | CCN1CCN(c2ccc(Nc3ncc(C(F)(F)F)c(Nc4cccc5c4C(=O)NC5)n3)c(OC(F)F)c2)CC1 [Compound I-78, 7-((2-((2-(difluoromethxoy)-4-(4-ethylpiperazin-1-yl)phenyl)amino)-5-(trifluoromethyl)pyrimidin-4-yl)amino)isoindolin-1-one] |  | 101 to 1000 | 11 to 100 | 0.1 to 10 |  | 
9 | CN1CCN(c2ccc(Nc3ncc(C(F)(F)F)c(Nc4cccc5c4C(=O)NC5)n3)c(OC(F)F)c2)CC1 [Compound I-79, 7-((2-((2-(difluoromethxoy)-4-(4-methylpiperazin-1-yl)phenyl)amino)-5-(trifluoromethyl)pyrimidin-4-yl)amino)isoindolin-1-one] |  | 101 to 1000 | 11 to 100 | 0.1 to 10 |  | 
10 | CCN1CCN(C2CCN(c3ccc(Nc4ncc(Cl)c(Nc5cccc6c5C(=O)NC6)n4)c(OC(F)F)c3)CC2)CC1 [Compound I-80, 7-((5-chloro-2-((2-(difluoromethoxy)-4-(4-(4-ethylpiperazin-1-yl)piperidin-1-yl)phenyl)amino)pyrimidin-4-yl)amino)isoindolin-1-one] |  | 101 to 1000 | 11 to 100 | 11 to 100 |  | 
11 | CC(C)N1CCN(C2CCN(c3ccc(Nc4ncc(Cl)c(Nc5cccc6c5C(=O)NC6)n4)c(OC(F)F)c3)CC2)CC1 [Compound I-81, 7-((5-chloro-2-((2-(difluoromethoxy)-4-(4-(4-isopropylpiperazin-1-yl)piperidin-1-yl)phenyl)amino)pyrimidin-4-yl)amino)isoindolin-1-one] |  | 101 to 1000 | 11 to 100 | 11 to 100 |  | 
12 | CN1C[C@@H]2C[C@H]1CN2c1ccc(Nc2ncc(C(F)(F)F)c(Nc3cccc4c3C(=O)NC4)n2)c(OC(F)F)c1 [Compound I-82, 7-((2-((2-(difluoromethoxy)-4-((1S,4S)-5-methyl-2,5-diazabicyclo[2.2.1]heptan-2-yl)phenyl)amino)-5-(trifluoromethyl)pyrimidin-4-yl)amino)isoindolin-1-one] |  | 101 to 1000 | 11 to 100 | 0.1 to 10 |  | 
13 | Cc1cnc(Nc2ccc(N3CCN(C)CC3)cc2OC(F)F)nc1Nc1cccc2c1C(=O)NC2 [Compound I-83, 7-((2-((2-(difluoromethoxy)-4-(4-methylpiperazin-1-yl)phenyl)amino)-5-methylpyrimidin-4-yl)amino)isoindolin-1-one] |  | > 1000 | 11 to 100 | 0.1 to 10 |  | 
14 | CN1CCN(c2ccc(Nc3ncc4cc(C#N)c(=O)n(C5CCCC5)c4n3)cc2)CC1 [ON123300] |  |  |  |  | a block of YAP/TAZ nuclear localization | attenuates transcriptional function
15 | CCC(=O)Nc1cccc(Oc2nc(Nc3ccc(N4CCN(C)CC4)cc3OC)ncc2Cl)c1 [WZ4003] |  |  |  |  | a block of YAP/TAZ nuclear localization | attenuates transcriptional function
